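These data come from cells grown in 96-well plates and exposed to compound for 48 hours at five concentrations. GI50 marks 50% less growth. TGI is the concentration that stops growth completely.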
What was measured:
Test in all cases: NCI-60 cell line screen, 48 h
[1] = system: A498 renal
[2] = system: SK-MEL-5 melanoma
[3] = system: SK-MEL-28 melanoma
[4] = system: SF-539 CNS
[5] = system: NCI-H226 lung
[6] = system: MCF7 breast
[7] = system: IGROV1 ovarian
[8] = system: SNB-19 CNS
[9] = system: UACC-257 melanoma
[10] = system: SK-MEL-2 melanoma

With `COC(=O)[C@@H]1N2C(=S)N(c3ccccc3)C(=O)[C@H]2SC1(C)C` the TGI [1] was > 100 µM, the TGI [2] was > 100 µM and the TGI [3] was > 100 µM. For the same compound, the TGI [4] was > 100 µM, the TGI [5] was > 100 µM and the TGI [6] was > 100 µM. For the same compound, the TGI [7] was > 100 µM, the TGI [8] was > 100 µM and the TGI [9] was > 100 µM. The TGI [10] was > 100 µM.
`Cc1[nH]c(-c2ccccc2)c(-c2ccc(Cl)cc2)c1C(=O)ONC(=O)c1ccccc1` showed a TGI [1] of 18.4 µM, a TGI [2] of 14.1 µM and a TGI [3] of 24.9 µM. For the same compound, the TGI [4] was 6.02 µM, the TGI [5] was 11.6 µM and the TGI [6] was 28 µM. For the same compound, the TGI [7] was 2.52 µM, the TGI [8] was 19.3 µM and the TGI [9] was 20.8 µM. It also gave a TGI [10] of 11.2 µM.
`CCOP(=O)(OCC)C(Nc1ccc(F)cc1)c1cccc([N+](=O)[O-])c1` (configuration not stated) was tested, and the TGI [1] was > 100 µM, the TGI [2] was > 100 µM and the TGI [3] was > 100 µM. The TGI [4] was > 100 µM, the TGI [5] was > 100 µM and the TGI [6] was > 100 µM. For the same compound, the TGI [7] was > 100 µM, the TGI [8] was > 100 µM and the TGI [9] was > 100 µM. The TGI [10] was > 100 µM.
With `COC1/C=C/C(C)C(C(C)C(OC)C(C)CCC(=O)C(C)C(CCC(=O)O)OC)OC(=O)/C=C/C=C(\C)CC(OC)CC2=CC(=O)O[C@@H](C(C)C(OC)CC(OC)/C=C/C(C)C(OC)C1)[C@H]2O` (some centres not stated) the TGI [1] was 0.343 µM, the TGI [2] was 2.88 µM and the TGI [3] was > 3.29 µM. For the same compound, the TGI [4] was > 5 µM, the TGI [5] was 2.13 µM and the TGI [6] was > 5 µM. The TGI [7] was 0.948 µM, the TGI [8] was > 5 µM and the TGI [9] was > 3.9 µM. It also gave a TGI [10] of 1.89 µM.
Compound `CCN(CC)CCCNc1ccc2nnn3c4ccc(O)cc4c(=O)c1c23` has a TGI [1] of 24.3 µM, a TGI [2] of 22.6 µM and a TGI [3] of 32 µM. It also gave a TGI [4] of 22.8 µM, a TGI [5] of 22.4 µM and a TGI [6] of 34 µM. It also gave a TGI [7] of 19.4 µM, a TGI [8] of 22.8 µM and a TGI [9] of 32.6 µM. The TGI [10] was 28.8 µM.
`Cc1ccc(S(=O)(=O)N2CCN(CCN(C)CCN3CCN(S(=O)(=O)c4ccc(C)cc4)CC3)CC2)cc1` showed a TGI [1] of 31.8 µM, a TGI [2] of 32.3 µM and a TGI [3] of 31.4 µM. For the same compound, the TGI [4] was 30.3 µM, the TGI [5] was 79.7 µM and the TGI [6] was 32.8 µM. The TGI [7] was 33.6 µM, the TGI [8] was 69.4 µM and the TGI [9] was 30.5 µM. It also gave a TGI [10] of 33.6 µM.
For `C/C=C/[C@H]1O[C@@](OC)([C@@H](C)[C@H](O)[C@H](C)[C@H]2OC(=O)/C(OC)=C/C(C)=C/[C@@H](C)[C@@H](O)[C@@H](C)[C@@H](O)[C@H](C)C/C(C)=C/C=C/[C@@H]2OC)CC(OC2CC(O)C(OC(N)=O)C(C)O2)[C@@H]1C` (some centres not stated), the TGI [1] was 21 µM, the TGI [2] was < 0.0433 µM and the TGI [3] was 14.2 µM. The TGI [4] was < 0.01 µM, the TGI [5] was 14.1 µM and the TGI [6] was 16 µM. The TGI [7] was 15.1 µM, the TGI [8] was 18.1 µM and the TGI [9] was < 0.0143 µM. The TGI [10] was 1.15 µM.
For `N#CC1=CNc2sccc2S1(=O)=O`, the TGI [1] was > 100 µM, the TGI [2] was > 100 µM and the TGI [3] was > 100 µM. For the same compound, the TGI [4] was > 100 µM, the TGI [5] was > 100 µM and the TGI [6] was > 100 µM. The TGI [7] was > 100 µM, the TGI [8] was > 100 µM and the TGI [9] was > 100 µM. The TGI [10] was > 100 µM.
`CC(C)n1c(=O)n(-c2ccccc2)n(C(C)(C)C)c1=O` was tested, and the TGI [1] was > 100 µM, the TGI [2] was > 100 µM and the TGI [3] was > 100 µM. For the same compound, the TGI [4] was > 100 µM, the TGI [5] was > 100 µM and the TGI [6] was > 100 µM. The TGI [7] was > 100 µM, the TGI [8] was > 100 µM and the TGI [9] was > 100 µM. The TGI [10] was > 100 µM.
In the case of `COC(=O)C(COC(=O)/C=C/c1ccc(OC(C)=O)c(OC(C)=O)c1)OC(=O)/C=C/c1ccc(OC(C)=O)c(OC(C)=O)c1` (configuration not stated), the TGI [1] is reported as 43.1 µM, the TGI [2] is reported as 28.3 µM and the TGI [3] is reported as 30.9 µM. It also gave a TGI [4] of 24.2 µM, a TGI [5] of 90.5 µM and a TGI [6] of 21.8 µM. For the same compound, the TGI [7] was 23.9 µM, the TGI [8] was 22.2 µM and the TGI [9] was 29.9 µM. The TGI [10] was 26 µM.
`O=C(/C=C/c1ccc([N+](=O)[O-])cc1)c1nc2ccccc2[nH]1` was tested, and the TGI [1] was 3.99 µM, the TGI [2] was > 100 µM and the TGI [3] was > 100 µM. For the same compound, the TGI [4] was > 73.6 µM, the TGI [5] was 4.39 µM and the TGI [6] was > 100 µM. For the same compound, the TGI [7] was 17.9 µM, the TGI [8] was > 100 µM and the TGI [9] was 31.4 µM. The TGI [10] was > 100 µM.
Compound `COc1ccc(NC2Oc3cc4c(cc3C(c3cc(OC)c(O)c(OC)c3)C2C)OCO4)cc1` (configuration not stated) has a TGI [1] of 31.7 µM, a TGI [2] of 4.34 µM and a TGI [3] of 37.3 µM. For the same compound, the TGI [4] was 25.6 µM, the TGI [5] was 93.6 µM and the TGI [6] was > 100 µM. The TGI [7] was > 100 µM, the TGI [8] was > 100 µM and the TGI [9] was > 100 µM. It also gave a TGI [10] of 6.72 µM.
For `CSCCC(NC(=O)OC(C)(C)C)C(=O)NCCNc1ccc(NCCNC(=O)C(CCSC)NC(=O)OC(C)(C)C)c2c1C(=O)c1ccccc1C2=O` (configuration not stated), the TGI [1] was 21.1 µM, the TGI [2] was 13.2 µM and the TGI [3] was 3.69 µM. The TGI [4] was 6.96 µM, the TGI [5] was 19.7 µM and the TGI [6] was 19.2 µM. It also gave a TGI [7] of 9.85 µM, a TGI [8] of 16.6 µM and a TGI [9] of 12.1 µM. It also gave a TGI [10] of 35.9 µM.
`CCOC(=O)c1cn(-c2ccc(Cl)cc2)c(=O)n2c1nc1ccccc12` was tested, and the TGI [1] was > 100 µM, the TGI [2] was > 100 µM and the TGI [3] was > 100 µM. For the same compound, the TGI [4] was > 100 µM, the TGI [5] was > 100 µM and the TGI [6] was > 100 µM. For the same compound, the TGI [7] was > 100 µM, the TGI [8] was > 100 µM and the TGI [9] was > 100 µM. The TGI [10] was > 100 µM.
For `COc1ccc(-c2c(C#N)c(-c3ccccc3)n(NS(=O)(=O)c3ccccc3)c(=O)c2C#N)cc1`, the TGI [1] was > 100 µM, the TGI [2] was > 100 µM and the TGI [3] was > 100 µM. For the same compound, the TGI [4] was > 100 µM, the TGI [5] was > 100 µM and the TGI [6] was > 100 µM. The TGI [7] was > 100 µM, the TGI [8] was > 100 µM and the TGI [9] was > 100 µM. The TGI [10] was > 100 µM.
With `CCOC(=O)C1=C(C)NC(=S)NC1c1cccc(O)c1` (configuration not stated) the TGI [1] was 87.6 µM, the TGI [2] was > 100 µM and the TGI [3] was > 100 µM. The TGI [4] was > 100 µM, the TGI [5] was > 100 µM and the TGI [6] was > 100 µM. The TGI [7] was > 100 µM, the TGI [8] was > 100 µM and the TGI [9] was > 100 µM. The TGI [10] was 79 µM.
For `OC1OC(c2ccco2)C(F)(F)C(F)(F)C1(F)F` (configuration not stated), the TGI [1] was > 100 µM, the TGI [2] was 89.1 µM and the TGI [3] was > 100 µM. For the same compound, the TGI [4] was > 100 µM, the TGI [5] was > 100 µM and the TGI [6] was > 100 µM. For the same compound, the TGI [7] was > 100 µM, the TGI [8] was > 100 µM and the TGI [9] was > 100 µM. For the same compound, the TGI [10] was > 100 µM.
In the case of `N#CCc1nc(C#N)c(N)o1`, the TGI [1] is reported as > 100 µM, the GI50 [2] is reported as > 100 µM and the TGI [2] is reported as > 100 µM. For the same compound, the TGI [3] was > 100 µM, the TGI [4] was > 100 µM and the TGI [5] was > 100 µM. For the same compound, the TGI [6] was > 100 µM, the TGI [7] was > 100 µM and the GI50 [8] was > 100 µM. For the same compound, the TGI [8] was > 100 µM, the TGI [9] was > 100 µM and the TGI [10] was > 100 µM.
With `O=C(NCCNCCO)N/N=C/c1ccc(Cl)cc1` the TGI [1] was > 100 µM, the TGI [2] was > 100 µM and the TGI [3] was > 100 µM. The TGI [4] was > 100 µM, the TGI [5] was > 100 µM and the TGI [6] was > 100 µM. For the same compound, the TGI [7] was > 100 µM, the TGI [8] was > 100 µM and the TGI [9] was > 100 µM. The TGI [10] was > 100 µM.
In the case of `CC[N+](C)(CC)CCN1C(=O)c2ccccc2S1(=O)=O`, the TGI [1] is reported as > 100 µM, the TGI [2] is reported as > 100 µM and the TGI [3] is reported as > 100 µM. For the same compound, the TGI [4] was > 100 µM, the TGI [5] was > 100 µM and the TGI [6] was > 100 µM. The TGI [7] was > 100 µM, the TGI [8] was > 100 µM and the TGI [9] was > 100 µM. The TGI [10] was > 100 µM.
